Values belong to the compound of their own block, whether it stands above or below them. Active and inactive are the calls of the source.
Assays:
[1] = biological target: T1, Mannose-6-phosphate isomerase (Homo sapiens, UniProt P34949); test: Confirmation of compounds inhibiting phosphomannose isomerase (PMI) via a fluorescence intensity assay using a high concentration of mannose 6-phosphate. [Related pubchem assays (depositor defined):AID1209, AID1220, AID1545, AID1553, AID1620]
T1 sequence (P34949 whole entry): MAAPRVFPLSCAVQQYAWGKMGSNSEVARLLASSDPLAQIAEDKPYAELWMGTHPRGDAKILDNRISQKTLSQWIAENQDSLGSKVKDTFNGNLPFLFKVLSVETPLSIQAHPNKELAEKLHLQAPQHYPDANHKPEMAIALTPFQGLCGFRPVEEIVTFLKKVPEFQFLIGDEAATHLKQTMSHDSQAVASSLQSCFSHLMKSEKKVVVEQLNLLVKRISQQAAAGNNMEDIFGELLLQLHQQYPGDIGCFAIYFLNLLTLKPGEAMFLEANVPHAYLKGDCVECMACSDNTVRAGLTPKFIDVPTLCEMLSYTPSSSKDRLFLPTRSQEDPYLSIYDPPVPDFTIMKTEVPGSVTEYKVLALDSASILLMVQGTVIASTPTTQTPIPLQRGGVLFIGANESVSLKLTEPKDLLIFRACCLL

[2] = biological target: T1, Mannose-6-phosphate isomerase; test: phosphomannose isomerase inhibition – biochemical, fluorescence intensity, confirmation (AID 1535)
Phosphomannomutase 2 = Phosphomannomutase 2 (Homo sapiens, UniProt O15305); test: Counter screen SAR assay for PMM2 inhibitors via a fluorescence intensity assay. [Related pubchem assays (depositor defined):AID1545, AID1574]
[3] = biological target: G-protein coupled receptor 35 (Homo sapiens, UniProt Q9HC97); test: inhibition of zaprinast-stimulated GPR35 beta-arrestin translocation – imaging, U2OS, beta-arrestin-GFP, zaprinast agonist, primary screen (AID 2058); type: functional;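 further: antagonist potency meaning inhibition of agonist-induced arrestin redistribution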
[4] = biological target: Phosphoethanolamine/phosphocholine phosphatase (Homo sapiens, UniProt Q8TCT1); test: SAR assay for compounds that inhibit PHOSPHO1. [Related pubchem assays (depositor defined):AID1545, AID1565, AID1574]
X-box-binding protein 1 = X-box-binding protein 1 (Homo sapiens, UniProt P17861); type: functional, Cricetulus griseus;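 further: confirmatory dose-response counter-screen serving a CHOP assay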
[5] = biological target: DNA damage-inducible transcript 3 protein (Mus musculus, UniProt P35639); type: functional, Cricetulus griseus
Integrin alpha-4 = Integrin alpha-4 (Homo sapiens, UniProt P13612); test: allosteric modulators of alpha4 integrin VLA-4 – cell-based, LIBS antibody binding, flow cytometry, SAR follow-up (AID 488791); type: functional
[6] = biological target: Cystic fibrosis transmembrane conductance regulator/Golgi-associated PDZ and coiled-coil motif-containing protein (Homo sapiens, UniProt P13569+Q9HD26); test: potency against CAL PDZ-peptide interaction – biochemical, fluorescence polarization, Cerulean-tagged CAL PDZ, cherry-picks, dose response (AID 504773)
[7] = viability of PTEN-deleted HCT116 cells – cell-based, HCT116 PTEN knockout, dose response (AID 1047); type: functional;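 further: HCT116 colon tumor cells with PTEN knocked out; cells exposed to compound for 60 hours before readout; potency for loss of cell viability measured by luminescence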
[8] = IC50 of Artemis nuclease activity blockers – biochemical, fluorescence intensity, dose response (AID 720701); type: functional;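 further: Artemis endonuclease enzyme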
SUMO-activating enzyme = SUMO-activating enzyme (Homo sapiens, UniProt Q9UBT2); test: blockers of UBC9-mediated SUMO conjugation – biochemical, AlphaScreen, SUMOylation inhibitor project, confirmation (AID 2018); type: functional
[9] = viability of HCT116 lacking mutant beta-catenin – cell-based, human colon tumor, dose response (AID 1045); type: functional;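 further: HCT116 colon tumor cells with beta catenin knocked out; cells exposed to compound for 60 hours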
NS3 = NS3 (Hepatitis C virus, UniProt A3EZJ3); test: PubChem AID 2173; design: species or system Hepacivirus hominis
[10] = biological target: T2, Voltage-gated N-type calcium channel alpha-1B subunit/Amyloid beta A4 precursor protein-binding family A member 1 (Homo sapiens, UniProt Q00975+Q02410); test: disruptors of Mint-PDZ/N-type channel peptide interaction – biochemical, HTRF, SAR follow-up (AID 2489); type: functional
Estrogen receptor beta = Estrogen receptor beta (Homo sapiens, UniProt Q92731); test: blockers of SRC-3 recruitment to ERβ – biochemical, ELISA, streptavidin-HRP readout, orthogonal assay, confirmation (AID 1060)
[11] = biological target: T2, Voltage-gated N-type calcium channel alpha-1B subunit/Amyloid beta A4 precursor protein-binding family A member 1; type: protein assay
[12] = biological target: T2, Voltage-gated N-type calcium channel alpha-1B subunit/Amyloid beta A4 precursor protein-binding family A member 1; type: protein assay; remark: listed apart in the source
[13] = biological target: T3, Tyrosine-protein phosphatase non-receptor type 7 (Homo sapiens, UniProt P35236); test: redox-active compounds inhibiting HePTP phosphatase – biochemical, fluorescence, mechanism study (AID 2068); type: functional
T3 sequence (P35236 whole entry): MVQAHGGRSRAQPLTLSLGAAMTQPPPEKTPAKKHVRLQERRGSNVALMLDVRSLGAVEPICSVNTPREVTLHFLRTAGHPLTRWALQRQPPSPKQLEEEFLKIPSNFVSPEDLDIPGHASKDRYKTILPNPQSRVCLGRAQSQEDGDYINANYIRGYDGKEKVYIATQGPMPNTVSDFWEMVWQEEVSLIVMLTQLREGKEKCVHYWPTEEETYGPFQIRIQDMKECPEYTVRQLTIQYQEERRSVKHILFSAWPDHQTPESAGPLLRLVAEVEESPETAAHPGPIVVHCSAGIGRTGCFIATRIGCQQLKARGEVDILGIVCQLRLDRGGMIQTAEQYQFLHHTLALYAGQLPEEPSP

T2 sequence (Q00975 whole entry): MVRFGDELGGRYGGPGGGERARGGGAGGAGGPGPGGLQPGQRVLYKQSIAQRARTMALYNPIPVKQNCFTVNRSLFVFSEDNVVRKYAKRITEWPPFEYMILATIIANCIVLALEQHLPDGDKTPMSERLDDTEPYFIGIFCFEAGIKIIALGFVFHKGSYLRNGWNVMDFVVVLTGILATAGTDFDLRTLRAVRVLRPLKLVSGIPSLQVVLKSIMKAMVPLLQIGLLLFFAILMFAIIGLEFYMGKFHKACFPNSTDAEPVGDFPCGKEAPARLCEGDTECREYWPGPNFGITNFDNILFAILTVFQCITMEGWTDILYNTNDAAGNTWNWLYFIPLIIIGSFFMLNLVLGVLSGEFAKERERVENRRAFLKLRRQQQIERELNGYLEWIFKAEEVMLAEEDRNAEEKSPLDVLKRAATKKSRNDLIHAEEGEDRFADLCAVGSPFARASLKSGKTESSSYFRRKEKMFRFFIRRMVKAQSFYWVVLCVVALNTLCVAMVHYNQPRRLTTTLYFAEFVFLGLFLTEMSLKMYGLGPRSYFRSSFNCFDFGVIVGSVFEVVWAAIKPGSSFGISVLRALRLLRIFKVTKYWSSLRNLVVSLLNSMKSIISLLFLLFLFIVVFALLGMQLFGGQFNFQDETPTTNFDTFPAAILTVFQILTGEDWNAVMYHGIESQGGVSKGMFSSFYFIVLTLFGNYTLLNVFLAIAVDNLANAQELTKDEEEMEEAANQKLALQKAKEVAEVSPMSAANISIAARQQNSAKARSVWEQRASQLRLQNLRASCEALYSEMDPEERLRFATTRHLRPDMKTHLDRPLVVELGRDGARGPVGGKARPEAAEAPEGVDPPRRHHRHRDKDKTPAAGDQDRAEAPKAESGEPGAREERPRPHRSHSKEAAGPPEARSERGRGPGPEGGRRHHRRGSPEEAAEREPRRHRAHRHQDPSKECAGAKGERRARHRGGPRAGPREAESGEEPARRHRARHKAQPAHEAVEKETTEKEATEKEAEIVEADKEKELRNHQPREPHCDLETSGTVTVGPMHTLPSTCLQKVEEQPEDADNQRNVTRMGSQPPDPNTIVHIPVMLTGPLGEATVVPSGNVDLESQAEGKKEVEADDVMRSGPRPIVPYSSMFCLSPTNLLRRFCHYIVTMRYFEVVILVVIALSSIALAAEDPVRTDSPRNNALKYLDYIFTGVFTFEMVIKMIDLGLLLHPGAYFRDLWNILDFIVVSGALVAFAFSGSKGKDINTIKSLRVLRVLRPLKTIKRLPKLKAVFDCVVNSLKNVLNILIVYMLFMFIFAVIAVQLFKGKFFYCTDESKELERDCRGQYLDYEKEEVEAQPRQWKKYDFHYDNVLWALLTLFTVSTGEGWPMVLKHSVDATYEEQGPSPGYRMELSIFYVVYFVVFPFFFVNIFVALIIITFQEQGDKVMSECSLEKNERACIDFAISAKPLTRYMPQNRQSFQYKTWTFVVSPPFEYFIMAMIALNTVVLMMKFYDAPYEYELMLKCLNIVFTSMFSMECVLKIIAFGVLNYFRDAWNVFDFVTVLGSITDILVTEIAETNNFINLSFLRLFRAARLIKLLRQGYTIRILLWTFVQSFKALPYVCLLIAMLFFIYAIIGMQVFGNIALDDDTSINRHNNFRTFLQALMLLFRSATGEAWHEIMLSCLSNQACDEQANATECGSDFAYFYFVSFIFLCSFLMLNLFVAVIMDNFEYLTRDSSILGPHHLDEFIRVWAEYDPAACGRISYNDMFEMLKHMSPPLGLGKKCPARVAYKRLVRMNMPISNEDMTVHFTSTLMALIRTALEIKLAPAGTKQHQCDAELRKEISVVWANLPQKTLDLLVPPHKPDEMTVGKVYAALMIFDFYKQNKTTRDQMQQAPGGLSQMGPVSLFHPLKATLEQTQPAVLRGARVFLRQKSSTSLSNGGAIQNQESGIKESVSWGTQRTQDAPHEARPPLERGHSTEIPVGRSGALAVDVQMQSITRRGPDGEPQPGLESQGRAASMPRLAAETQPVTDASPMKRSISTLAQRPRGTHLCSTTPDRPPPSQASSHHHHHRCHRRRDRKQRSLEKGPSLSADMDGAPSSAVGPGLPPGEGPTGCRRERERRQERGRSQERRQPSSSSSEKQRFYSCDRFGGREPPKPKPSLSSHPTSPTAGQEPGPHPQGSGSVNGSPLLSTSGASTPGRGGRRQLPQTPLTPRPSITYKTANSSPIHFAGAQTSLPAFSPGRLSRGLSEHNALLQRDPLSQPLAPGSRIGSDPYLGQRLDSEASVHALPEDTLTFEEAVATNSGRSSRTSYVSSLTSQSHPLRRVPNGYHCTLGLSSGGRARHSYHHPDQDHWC
T2 sequence (Q02410 whole entry): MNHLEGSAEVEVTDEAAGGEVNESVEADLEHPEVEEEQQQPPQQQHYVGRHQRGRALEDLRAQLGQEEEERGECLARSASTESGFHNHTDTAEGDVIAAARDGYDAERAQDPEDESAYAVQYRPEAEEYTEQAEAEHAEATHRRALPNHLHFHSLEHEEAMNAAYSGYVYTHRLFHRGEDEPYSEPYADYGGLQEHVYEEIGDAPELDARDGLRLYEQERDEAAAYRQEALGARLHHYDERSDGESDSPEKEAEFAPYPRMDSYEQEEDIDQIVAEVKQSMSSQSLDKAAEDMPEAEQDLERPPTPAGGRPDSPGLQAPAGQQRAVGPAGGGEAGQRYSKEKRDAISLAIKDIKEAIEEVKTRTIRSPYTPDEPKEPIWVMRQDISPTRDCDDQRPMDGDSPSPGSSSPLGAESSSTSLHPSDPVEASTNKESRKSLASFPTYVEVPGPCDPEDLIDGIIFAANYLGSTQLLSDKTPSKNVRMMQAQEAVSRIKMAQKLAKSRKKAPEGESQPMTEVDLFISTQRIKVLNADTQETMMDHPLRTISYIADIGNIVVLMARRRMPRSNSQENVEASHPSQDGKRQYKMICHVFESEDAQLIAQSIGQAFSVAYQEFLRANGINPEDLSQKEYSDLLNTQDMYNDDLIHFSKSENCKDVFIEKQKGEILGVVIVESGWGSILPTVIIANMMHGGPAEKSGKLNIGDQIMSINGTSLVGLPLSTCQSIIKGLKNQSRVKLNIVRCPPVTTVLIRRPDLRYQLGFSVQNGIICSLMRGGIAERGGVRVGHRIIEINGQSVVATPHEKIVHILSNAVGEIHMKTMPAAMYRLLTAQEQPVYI
Phosphomannomutase 2, sequence (O15305 whole entry): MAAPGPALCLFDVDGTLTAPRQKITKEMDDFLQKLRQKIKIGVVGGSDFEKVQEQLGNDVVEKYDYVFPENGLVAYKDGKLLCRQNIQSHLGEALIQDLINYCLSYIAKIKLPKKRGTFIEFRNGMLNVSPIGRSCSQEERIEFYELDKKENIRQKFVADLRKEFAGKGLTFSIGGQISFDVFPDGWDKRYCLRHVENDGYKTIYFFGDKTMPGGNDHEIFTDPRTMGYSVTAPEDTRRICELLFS
SUMO-activating enzyme, sequence (Q9UBE0 whole entry): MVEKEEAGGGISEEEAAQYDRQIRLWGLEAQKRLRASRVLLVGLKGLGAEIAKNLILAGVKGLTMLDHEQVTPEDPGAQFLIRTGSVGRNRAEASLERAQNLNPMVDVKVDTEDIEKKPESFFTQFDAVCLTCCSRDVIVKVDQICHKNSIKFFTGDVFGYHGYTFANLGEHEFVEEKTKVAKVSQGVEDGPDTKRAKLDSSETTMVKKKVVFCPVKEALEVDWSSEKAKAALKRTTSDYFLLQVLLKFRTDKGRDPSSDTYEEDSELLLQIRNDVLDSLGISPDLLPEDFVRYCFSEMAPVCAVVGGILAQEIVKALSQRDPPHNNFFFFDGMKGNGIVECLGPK
SUMO-activating enzyme, sequence (Q9UBT2 whole entry): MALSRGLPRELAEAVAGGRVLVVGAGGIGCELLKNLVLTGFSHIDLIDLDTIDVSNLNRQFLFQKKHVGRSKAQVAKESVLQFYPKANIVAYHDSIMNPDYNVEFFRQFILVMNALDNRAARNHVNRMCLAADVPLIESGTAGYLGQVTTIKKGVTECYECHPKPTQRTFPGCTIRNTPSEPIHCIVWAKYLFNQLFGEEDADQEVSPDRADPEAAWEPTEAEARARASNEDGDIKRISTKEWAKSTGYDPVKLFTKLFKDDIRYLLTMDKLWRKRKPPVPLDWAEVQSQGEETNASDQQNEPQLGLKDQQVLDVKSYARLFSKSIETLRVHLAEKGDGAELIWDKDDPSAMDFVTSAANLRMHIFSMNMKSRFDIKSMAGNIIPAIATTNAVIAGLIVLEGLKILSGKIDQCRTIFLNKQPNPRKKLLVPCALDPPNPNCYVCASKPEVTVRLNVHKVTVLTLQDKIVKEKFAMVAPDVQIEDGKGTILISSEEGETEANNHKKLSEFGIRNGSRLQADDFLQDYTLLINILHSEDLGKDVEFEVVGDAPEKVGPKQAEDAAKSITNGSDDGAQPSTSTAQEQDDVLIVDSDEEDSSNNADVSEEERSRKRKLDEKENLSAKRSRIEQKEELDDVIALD
NS3, sequence (A3EZJ3 whole entry): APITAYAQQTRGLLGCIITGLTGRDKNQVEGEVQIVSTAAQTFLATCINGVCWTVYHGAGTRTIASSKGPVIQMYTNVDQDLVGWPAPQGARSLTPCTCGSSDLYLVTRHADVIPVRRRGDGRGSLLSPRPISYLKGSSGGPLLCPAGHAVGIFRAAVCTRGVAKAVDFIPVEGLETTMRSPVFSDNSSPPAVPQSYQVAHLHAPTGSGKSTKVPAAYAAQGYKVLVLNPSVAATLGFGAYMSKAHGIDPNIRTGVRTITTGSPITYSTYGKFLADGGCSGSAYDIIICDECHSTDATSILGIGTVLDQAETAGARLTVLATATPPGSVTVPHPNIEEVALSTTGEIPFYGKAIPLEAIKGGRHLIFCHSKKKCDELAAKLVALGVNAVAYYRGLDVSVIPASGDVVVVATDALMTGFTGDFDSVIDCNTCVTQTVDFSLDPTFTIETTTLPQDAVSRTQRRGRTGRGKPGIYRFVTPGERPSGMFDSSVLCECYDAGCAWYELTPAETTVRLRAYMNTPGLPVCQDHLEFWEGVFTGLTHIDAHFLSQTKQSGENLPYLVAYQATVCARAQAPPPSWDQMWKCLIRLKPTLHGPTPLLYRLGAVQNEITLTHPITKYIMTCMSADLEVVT

IC50 [1]: > 100 µM (inactive) | IC50 [2]: > 100 µM (inactive) | IC50 (Phosphomannomutase 2): > 100 µM (inactive)
SMILES: O=c1c2ccc(O)cc2sn1C1CCCC1

IC50 [3]: 0.553 µM (active)
SMILES: C=CCCCCCCCCc1nnc(SCC(=O)O)[nH]1

SMILES: Cc1ccc(C)c(-n2[se]c3ccccc3c2=O)c1
IC50 [2]: 88 µM (active) | IC50 (Phosphomannomutase 2): > 100 µM (inactive) | IC50 [4]: 36 µM (inactive)

Absolute IC50 (XBP1) (X-box-binding protein 1): 10 µM
SMILES: Cc1ccc(NC(=O)c2cc(NC(=O)c3ccco3)ccc2N2CCCCC2)cc1
Absolute IC50 (CHOP) [5]: 10 µM

EC50 (Integrin alpha-4): 7.14 µM (active)
SMILES: COC(=O)C1OC2(OC1C(=O)OC)c1ccccc1-c1ccccc12 (stereo unspecified)

AC50 [6]: > 56 µM (inactive)
SMILES: O=C(c1ccccc1)C(c1ccccc1)c1ccccc1

SMILES: Cn1c(-c2ccc(C=O)s2)nc2c3ccccc3c3ccccc3c21
EC50 [7]: 25.7 µM (active) | IC50 [8]: > 20 µM (inactive) | IC50 (SUMO-activating enzyme): > 100 µM (inactive) | EC50 [9]: 24.9 µM (active)

IC50 (NS3): 5.49 µM (active) | IC50 [10]: > 56.8 µM (inactive) | IC50 (Estrogen receptor beta): 0.478 µM (not active) | IC50 [11]: 26 µM (active) | IC50 [12]: 2.28 µM (active) | IC50 [13]: 2.94 µM (active)
SMILES: O=C(NC1CCCC1)c1ccc2nc(-c3ccco3)c(-c3ccco3)nc2c1

From ChEMBL document CHEMBL1201862, “PubChem BioAssay data set” (2004)
